Source: patent US10047105B2, “Gyrase inhibitors” (Merck Sharp & Dohme Corp., priority 2009, dated 2018)
In brackets after ≈: the same amount, converted by molar mass.

Experiments:
[1] = system: S. pneumoniae ATCC 51916; assay: MIC, S. pneumoniae; type: cell-based; settings: S. pneumoniae
[2] = system: S. aureus ATCC 13709; assay: MIC, antibacterial potency, S. aureus; type: cell-based; settings: S. aureus

Row | SMILES | MIC Spn52 [1] [µg/mL] | MIC, SA [2] [µg/mL]
1 | CCc1[nH]c2nc(Oc3cnc4ccoc4c3)nc(Oc3cnc4ccoc4c3)c2c1Cl.O=C(O)C(F)(F)F [700,650] | 1 | ≤ 0.5
2 | CCc1[nH]c2nc(Oc3cccnc3)nc(Oc3cccnc3)c2c1C(F)(F)F.O=C(O)C(F)(F)F [700,654] | > 64 | > 64
3 | CCc1[nH]c2nc(Sc3cnc4nccnc4c3)nc(N3CC4CC3CN4)c2c1Cl.O=C(O)C(F)(F)F (centres unmarked) [700,655] | 2 | > 64
4 | CCc1[nH]c2nc(Sc3cnc4nccnc4c3)nc(N3CCC(C(O)c4cccs4)CC3)c2c1Cl.O=C(O)C(F)(F)F (centres unmarked) [700,656] | 2 | ≤ 0.5
5 | CCc1[nH]c2nc(Sc3cnc4nccnc4c3)nc(N3CC[C@H](O)[C@H]3CO)c2c1Cl [700,657] | 2 (≈ 4.37 µM) | 8 (≈ 17.5 µM)
6 | CCc1[nH]c2nc(Sc3cnc4nccnc4c3)nc(N3CC4C(C3)C4NC(=N)N)c2c1Cl (centres unmarked) [700,658] | 8 (≈ 16.6 µM) | ≤ 0.5
7 | CCc1[nH]c2nc(Sc3cnc4cccnc4c3)nc(N3CC[C@H](O)[C@H]3CO)c2c1Cl [700,659] | 2 (≈ 4.38 µM) | 4 (≈ 8.75 µM)
8 | CCc1[nH]c2nc(Sc3cnc4cccnc4c3)nc(N3CC4CNC4C3)c2c1Cl (centres unmarked) [700,660] | 1 (≈ 2.28 µM) | ≤ 0.5
9 | CCc1[nH]c2nc(Sc3ccc4c(N5CC(N)C5)cc(C(=O)O)nc4c3)nc(N3CC4C(N)C4C3)c2c1Cl (centres unmarked) [700,661] | > 64 | > 64
10 | CCOc1nc(Oc2ccc3c(N)nc(C)nc3c2)nc2[nH]c(CC)c(Cl)c12.O=C(O)C(F)(F)F [700,664] | 4 | 2
11 | CCOc1nc(Oc2cccnc2)nc2[nH]c(CC)c(Cl)c12.O=C(O)C(F)(F)F [700,665] | 8 | 2
12 | CCc1[nH]c2nc(Sc3ccc(C#N)c(F)c3)nc(N3CC[C@@H](N)C3)c2c1Cl.O=C(O)C(F)(F)F [700,666] | 4 | 2
13 | CCc1[nH]c2nc(Sc3cnc4nccnc4c3)nc(N3CC(Oc4cccnc4)C3)c2c1Cl.O=C(O)C(F)(F)F.O=C(O)C(F)(F)F [700,667] | 1 | ≤ 0.5
14 | CCc1[nH]c2nc(Sc3cnc4nccnc4c3)nc(N3CC(Oc4ccc(OC)cc4)C3)c2c1Cl.O=C(O)C(F)(F)F [700,668] | > 64 | 8
15 | CCc1[nH]c2nc(Sc3cnc4nccnc4c3)nc(N3CC(Oc4ccc(C(F)(F)F)cc4)C3)c2c1Cl.O=C(O)C(F)(F)F [700,669] | > 64 | > 64
16 | CCc1[nH]c2nc(Sc3cnc4nccnc4c3)nc(N3CC(C(N)=O)C3)c2c1Cl.O=C(O)C(F)(F)F [700,670] | 16 | 16
17 | CCc1[nH]c2nc(Sc3cnc4nccnc4c3)nc(N3CC(N4CCN(C(=O)OC(C)(C)C)CC4)C3)c2c1Cl.O=C(O)C(F)(F)F.O=C(O)C(F)(F)F [700,671] | 32 | 8
18 | CCc1[nH]c2nc(Sc3cnc4nccnc4c3)nc(N3CC(N4CCNCC4)C3)c2c1Cl.O=C(O)C(F)(F)F.O=C(O)C(F)(F)F [700,672] | 8 | 8
19 | CCc1[nH]c2nc(Sc3cnc4nccnc4c3)nc(N3CC4CNC4C3)c2c1Br.O=C(O)C(F)(F)F (centres unmarked) [700,673] | 4 | 2
20 | CCc1[nH]c2nc(Sc3cnc4ccoc4c3)nc(N3CCC(N)C3)c2c1Cl.O=C(O)C(F)(F)F (centres unmarked) [700,676] | 8 | 4
21 | CCc1[nH]c2nc(Sc3cnc4ccoc4c3)nc(N3CC4CNC4C3)c2c1Cl.O=C(O)C(F)(F)F (centres unmarked) [700,677] | 8 | 2

Row | SMILES | MIC Spn52 [1] [µg/mL] | MIC, SA [2] [µg/mL]
22 | CCc1[nH]c2nc(Sc3cnc4nccnc4c3)nc(N3CC(N)C4(CC4)C3)c2c1Cl.O=C(O)C(F)(F)F (centres unmarked) [700,678] | 2 | 1
23 | CCc1[nH]c2nc(Sc3cnc4ccoc4c3)nc(N3CCC(N)C3)c2c1Br.O=C(O)C(F)(F)F (centres unmarked) [700,679] | > 64 | > 64
24 | CCc1[nH]c2nc(Sc3cnc4ccoc4c3)nc(N3CC4CNC4C3)c2c1Br.O=C(O)C(F)(F)F (centres unmarked) [700,680] | 64 | 16
25 | CCc1[nH]c2nc(Sc3cnc4nccnc4c3)nc(Oc3cncc(OC)c3)c2c1Cl [700,686] | > 64 | > 64
26 | CCc1[nH]c2nc(Sc3ccc4c(N)ncnc4c3)nc(Oc3cncc(OC)c3)c2c1Cl [700,687] | > 64 | > 64
27 | CCc1[nH]c2nc(Sc3cnc4nccnc4c3)nc(N3CCC[C@H]3COC)c2c1Cl [700,688] | ≤ 0.5 | ≤ 0.5
28 | CCc1[nH]c2nc(Sc3ccc4c(N)ncnc4c3)nc(N3CC4CNC4C3)c2c1Cl (centres unmarked) [700,689] | 8 (≈ 17.7 µM) | 2 (≈ 4.42 µM)
29 | CCOc1nc(Oc2ccc3nc(C)ccc3c2)nc2[nH]c(CC)c(Cl)c12.O=C(O)C(F)(F)F [700,690] | 8 | > 64
30 | CCOc1nc(Oc2ccc3ccncc3c2)nc2[nH]c(CC)c(Cl)c12.O=C(O)C(F)(F)F [700,691] | > 64 | > 64
31 | CCc1[nH]c2nc(Sc3ccc4nc[nH]c(=O)c4c3)nc(N3CC(N)C3)c2c1Cl.O=C(O)C(F)(F)F [700,694] | 8 | 2
32 | CCc1[nH]c2nc(Sc3ccc4cc(C(=O)N5CC[C@@H](N)C5)cnc4c3)nc(N3CC[C@@H](N)C3)c2c1Cl [700,695] | 32 (≈ 59.6 µM) | 16 (≈ 29.8 µM)
33 | CCc1[nH]c2nc(Sc3cnc4[nH]c(C(F)(F)F)nc4c3)nc(N3CC[C@@H](N)C3)c2c1Cl [700,696] | 16 (≈ 33.1 µM) | > 64
34 | CCc1[nH]c2nc(Sc3ccc4cc(C(=O)N[C@H]5CCOC5=O)cnc4c3)nc(N3CC[C@@H](N)C3)c2c1Cl [700,697] | 8 (≈ 14.5 µM) | 4 (≈ 7.25 µM)
35 | CCc1[nH]c2nc(Sc3ccc4cc(C(=O)OC)cnc4c3)nc(N3CC[C@@H](N)C3)c2c1Cl [700,698] | 8 (≈ 16.6 µM) | ≤ 0.5
36 | CCOc1nc(Oc2ccc3[nH]ccc3c2)nc2[nH]c(CC)c(Cl)c12.O=C(O)C(F)(F)F [700,699] | 64 | 2
37 | CCc1[nH]c2nc(Sc3cnc4nccnc4c3)nc(N3CCC(N4CCN(C)CC4)C3)c2c1Cl.O=C(O)C(F)(F)F.O=C(O)C(F)(F)F (centres unmarked) [700,700] | 8 | 4
38 | CCOc1nc(Nc2cncnc2)nc2[nH]c(CC)c(Br)c12.O=C(O)C(F)(F)F [700,701] | 8 | 1
39 | CCOc1nc(Nc2cncnc2)nc2[nH]c(CC)c(Cl)c12.O=C(O)C(F)(F)F [700,702] | 16 | 2
40 | CCc1[nH]c2nc(Sc3ccc4cc(C(=O)O)cnc4c3)nc(N3CC[C@@H](N)C3)c2c1Cl [700,705] | > 64 | > 64
41 | CCc1[nH]c2nc(Sc3cnc4cccnc4c3)nc(N3CC(C4(N)CC4)C3)c2c1Cl [700,706] | 2 (≈ 4.42 µM) | 1 (≈ 2.21 µM)
42 | CCc1[nH]c2nc(Sc3cnc4nccnc4c3)nc(N3CC(C4(N)CC4)C3)c2c1Cl [700,707] | 4 (≈ 8.83 µM) | 2 (≈ 4.42 µM)

Row | SMILES | MIC Spn52 [1] [µg/mL] | MIC, SA [2] [µg/mL]
43 | CCc1[nH]c2nc(Sc3ccc4nc(C)cc(C(=O)O)c4c3)nc(N3CC[C@@H](N)C3)c2c1Cl [700,708, (R)-6-(4-(3-aminopyrrolidin-1-yl)-5-chloro-6-ethyl-7H-pyrrolo[2,3-d]pyrimidin-2-ylthio)-2-methylquinoline-4-carboxylic acid] | > 64 | 32 (≈ 66.3 µM)
44 | CCc1[nH]c2nc(Sc3ccc4nc[nH]c(=O)c4c3)nc(N3CC[C@@H](N)C3)c2c1Cl [700,710] | 8 (≈ 18.1 µM) | 1 (≈ 2.26 µM)
45 | CCc1[nH]c2nc(Sc3ccc4c(c3)C(=O)NC4)nc(N3CC[C@@H](N)C3)c2c1Cl [700,711] | 8 (≈ 18.7 µM) | 1 (≈ 2.33 µM)
46 | CCc1[nH]c2nc(Sc3cnc4ncc(=O)[nH]c4c3)nc(N3CC[C@@H](N)C3)c2c1Cl [700,712] | > 64 | 8 (≈ 18.1 µM)
47 | CCc1[nH]c2nc(Sc3cnc4cccnc4c3)nc(N3CC(NC)C3)c2c1Cl [700,713] | 2 (≈ 4.7 µM) | 1 (≈ 2.35 µM)
48 | CCc1[nH]c2nc(Sc3cnc4nccnc4c3)nc(N3CC(NC)C3)c2c1Cl [700,714] | 4 (≈ 9.37 µM) | 2 (≈ 4.68 µM)
49 | CCc1[nH]c2nc(Sc3ccc4cc(C#N)cnc4c3)nc(N3CC[C@@H](N)C3)c2c1Cl [700,715] | 1 (≈ 2.22 µM) | ≤ 0.5
50 | CCc1[nH]c2nc(Sc3ccc4cc(C#N)cnc4c3)nc(N3CC(CN)C3)c2c1Cl [700,716] | 2 (≈ 4.44 µM) | 1 (≈ 2.22 µM)
51 | CCc1[nH]c2nc(Sc3ccc4c(N)nc(C)nc4c3)nc(N3CC[C@@H](N)C3)c2c1Cl [700,717] | 4 (≈ 8.79 µM) | 2 (≈ 4.4 µM)
52 | CCc1[nH]c2nc(Sc3cnc4c(C#N)cnn4c3)nc(N3CC[C@@H](N)C3)c2c1Cl [700,718] | 8 (≈ 18.2 µM) | 4 (≈ 9.09 µM)
53 | CCc1[nH]c2nc(Sc3ccc4ccc(C(=O)O)nc4c3)nc(N3CC[C@@H](N)C3)c2c1Cl [700,719] | > 64 | 2 (≈ 4.26 µM)
54 | CCc1[nH]c2nc(Sc3cnc4nccnc4c3)nc(N3CCC(CN)C3)c2c1Cl.O=C(O)C(F)(F)F (centres unmarked) [700,720] | 16 | 8
55 | CCc1[nH]c2nc(Sc3cnc4nccnc4c3)nc(N3CC4CCCNC4C3)c2c1Cl.O=C(O)C(F)(F)F (centres unmarked) [700,721] | 32 | 32
56 | CCc1[nH]c2nc(Oc3cncnc3)nc(Oc3cncc(C#N)c3)c2c1Cl.O=C(O)C(F)(F)F [700,722] | 8 | 4
57 | CCc1[nH]c2nc(Oc3cncc(C#N)c3)nc(Oc3cncc(C#N)c3)c2c1Cl.O=C(O)C(F)(F)F [700,723] | 2 | ≤ 0.5
58 | CCc1[nH]c2nc(Oc3cncc(C#N)c3)nc(Oc3cncc(C#N)c3)c2c1Br.O=C(O)C(F)(F)F [700,724] | ≤ 0.5 | ≤ 0.5
59 | CCc1[nH]c2nc(Sc3cnc4nccnc4c3)nc(N3CC4[C@H](C3)[C@@]4(N)C(N)=O)c2c1Cl.O=C(O)C(F)(F)F.O=C(O)C(F)(F)F (some centres unmarked) [700,781] | 1 | ≤ 0.5
60 | CCc1[nH]c2nc(Sc3cncnc3)nc(N3CC[C@@H](N)C3)c2c1Cl [700,783] | 16 (≈ 42.6 µM) | 8 (≈ 21.3 µM)
61 | CCc1[nH]c2nc(Sc3cncnc3)nc(N3CC4C(N)C4C3)c2c1Cl (centres unmarked) [700,784] | 8 (≈ 20.6 µM) | 2 (≈ 5.16 µM)
